One data set addresses T1, Human Cytosolic PLA2 (Homo sapiens, UniProt P47712).
T1 sequence (P47712 1-749): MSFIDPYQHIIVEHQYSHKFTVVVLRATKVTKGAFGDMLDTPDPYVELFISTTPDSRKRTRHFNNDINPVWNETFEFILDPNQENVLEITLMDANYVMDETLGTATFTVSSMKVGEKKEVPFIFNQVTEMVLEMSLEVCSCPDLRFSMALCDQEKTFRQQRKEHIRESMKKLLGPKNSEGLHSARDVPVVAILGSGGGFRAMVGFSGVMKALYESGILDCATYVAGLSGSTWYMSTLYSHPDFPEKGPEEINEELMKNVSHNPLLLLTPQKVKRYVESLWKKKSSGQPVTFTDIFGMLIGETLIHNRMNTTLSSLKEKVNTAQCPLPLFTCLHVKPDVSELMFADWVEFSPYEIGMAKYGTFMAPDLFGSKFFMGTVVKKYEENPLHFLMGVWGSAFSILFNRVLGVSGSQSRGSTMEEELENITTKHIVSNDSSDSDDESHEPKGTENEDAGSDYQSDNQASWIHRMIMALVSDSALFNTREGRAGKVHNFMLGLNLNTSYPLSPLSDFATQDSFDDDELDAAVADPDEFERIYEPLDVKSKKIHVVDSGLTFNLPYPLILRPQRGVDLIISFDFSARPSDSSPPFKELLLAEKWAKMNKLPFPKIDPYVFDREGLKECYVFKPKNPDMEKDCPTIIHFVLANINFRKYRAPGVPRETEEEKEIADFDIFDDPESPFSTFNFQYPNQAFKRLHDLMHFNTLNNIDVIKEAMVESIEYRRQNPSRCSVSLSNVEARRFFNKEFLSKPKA
Put plainly: Inhibition of Cytosolic Phospholipase A2 (in vitro, [14C]PC/DG sonicated liposomes). Format: biochemical. Particulars: 37° C., 15 minutes, pH 7.5, 1 mM calcium chloride. The method, then:
The biological activity of the compounds of Formula I was evaluated employing an in vitro assay measuring the ability of these compounds to inhibit the activity of cytosolic phospholipase A2. The assay was performed essentially as described in R. Kramer, et al., Journal of Biological Chemistry, 266:5268-5272 (1991) with the exception that varying amounts of the compound of Formula I were added to the reaction mixture.
The substrate, sonicated liposomes containing 1-palmitoyl-2[^14 C ]arachidonoyl-sn-glycero-3-phosphocholine ([^14 C]PC, 55 mCi/mmole from NEN Research Products) and sn-1,2-dioleoylglycerol (DG, Avanti Polar Lipids, Birmingham, Ala.) at a molar ratio of 2:1, was prepared as follows. [^14 C]PC (20 nmol, 1×10^6 dpm, 50 μg/ml in toluene/ethanol) and DG (10 nmol, 100 μg/ml in chloroform) were dried under nitrogen. The lipids were dispersed in 1 ml of 150 mM sodium chloride, 50 mM HEPES, pH 7.5 (assay buffer) by sonication at 4° C. with a Microson™ probe-sonicator (Heat Systems Ultrasonics) for 4×15 seconds, with 45 second intervals. Bovine serum albumin (essentially fatty acid free, from a 100 mg/ml stock in water, Sigma) was added to a final concentration of 4 mg/ml. Samples to be assayed for cPLA2 activity were incubated with 50 μl liposomes (0.5 nmol [^14 C]PC, 50,000 dpm containing 0.25 nmol of DG) and varying amounts of the compound of Formula I, in a total volume of 0.2 ml of assay buffer containing 1 mM calcium chloride and 1 mM 2-mercaptoethanol. Incubations were carried out at 37° C. for 15 minutes and terminated by adding 2 ml of Dole's reagent (2-propanol/heptane/0.5 M sulfuric acid, 40:10:1 containing 10 μg/ml of stearic acid).
After mixing, 1.2 ml of heptane and 1 ml of water were added. The mixtures were briefly vortexed and the upper phase transferred to tubes containing 2 ml of heptane and 150 mg of Bio-Sil (Bio-Rad Laboratories) activated at 130° C. before use. The tubes were thoroughly vortexed and centrifuged (1000×g for 5 minutes). The supernatants were decanted into scintillation vials. After addition of 10 ml of a liquid scintillation cocktail (Ready Protein®, Beckman) radioactivity was counted using a Beckman liquid scintillation counter Model LS 7000. High radioactive counts correlate with enzymatic activity.
The first column provides the example number of the test inhibitor. The second column provides the concentration of the test compound (in micromolar quantities) which inhibits fifty percent of the activity of cytosolic phospholipase A2.
For `CCc1cc(-c2ccccc2)c(O)cc1OCCCCCC(C)(C)c1nn[nH]n1` [Example 4, 2-phenyl-4-ethyl-5-[[6-(2H-tetrazol-5-yl)-6-methylheptyl]oxy]phenol], the IC50 (as a rule, the concentration at which inhibition is half-maximal) amounted to 39.4 µM.

Take `CCCc1c(OCCCOc2cc(O)c(-c3ccccc3)cc2CC)cccc1OC(C)C(=O)O` (centres unmarked) [Example 5, 2-[3-[3-[(5-Ethyl-2-hydroxy[1, 1'-biphenyl]-4-yl)oxy]propoxy]-2-propylphenoxy]propanoic acid]: the IC50 came to 12 µM.

In the case of `CCCc1c(OCCCOc2cc(O)c(-c3ccc(F)cc3)cc2CC)cccc1Oc1ccccc1C(=O)O` [Example 8, 2-[2-Propyl-3-[3-[2-ethyl-4-(4-fluorophenyl)-5-hydroxyphenoxy]propoxy]phenoxy]benzoic acid], the IC50 was determined as 12 µM.

For the compound `CCc1cc(-c2ccc(F)cc2)c(O)cc1OCCCOc1ccccc1CCC(=O)NS(=O)(=O)c1ccccc1` [Example 3, N-Phenylsulfonyl-3-(2-(3-(2-ethyl-4-(4-fluorophenyl)-5-hydroxyphenoxy)propoxy)phenyl)propionamide], the IC50 is 17 µM.

For `CCc1cc(C(C)=O)c(O)cc1OCCCCCC(C)(C)c1nn[nH]n1` [Example 10, 1-[5-ethyl-2-hydroxy-4-[[6-methyl-6-(1H-tetrazol-5-yl)heptyl]oxy]phenyl]ethanone], the IC50 came out at 43 µM.

`CCCc1c(OCCCOc2cc(O)c(C(C)=O)cc2CC)cccc1OC(CC)C(=O)O` (centres unmarked) [Example 14, 2-[3-[3-(4-acetyl-2-ethyl-5-hydroxyphenoxy)-propoxy)-2-propylphenoxy]butanoic acid]: the IC50 was 14 µM.

Turning to `CCc1cc(-c2ccc(F)cc2)c(O)cc1OCCCCOc1ccccc1CCC(=O)O` [Example 9, 3-(2-(4-(2-Ethyl-4-(4-fluorophenyl)-5-hydroxyphenoxy)-5-butyloxy)phenyl)propionic acid], the IC50 is 35 µM.

With `CCCc1c(OCCCOc2cc(O)c(OCC)cc2CC)ccc2c1OC(C(=O)O)CC2` (centres unmarked) [Example 12, 3,4-dihydro-8-propyl-7-[3-(2-ethyl-5-hydroxy-4-ethoxy-phenoxy)propoxy]-2H-1-benzopyran-2-carboxylic acid], the IC50 is 28 µM.

`CCc1cc(-c2ccc(F)cc2)c(O)cc1OCCCOc1ccccc1CCC(=O)NS(C)(=O)=O` [Example 2, N-Methanesulfonyl-3-(2-(3-(2-ethyl-4-(4-fluorophenyl)-5-hydroxyphenoxy)propoxy)phenyl)propionamide]: the IC50 was 18 µM.

On to `CCCc1c(OCCCOc2cc(O)c(-c3ccc(F)cc3)cc2CC)ccc2c1OC(C(=O)O)CC2` (centres unmarked) [Example 6, 8-Propyl-7-[3-[4-(4-fluorophenyl)-2-ethyl-5-hydroxyphenoxy]propoxy]-3,4-dihydro-2H-1-benzopyran-2-carboxylic acid], for which the IC50 is 9 µM.

In the case of `CCc1cc(CC)c(OCCCCCC(C)(C)c2nn[nH]n2)cc1O` [Example 11, 2,4-diethyl-5-[[6-methyl-6-(1H-tetrazol-5yl)heptyl]oxy]phenol], the IC50 worked out at 54 µM.

`CCCc1c(OCCCOc2cc(O)c(C(C)=O)cc2CC)ccc2c1OC(C(=O)O)CC2` (centres unmarked) [Example 13, 7-[3-(4-acetyl-2-ethyl-5-hydroxyphenoxy)propoxy]-3,4-dihydro-8-propyl-2H-1-benzopyran-2-carboxylic acid]: the IC50 worked out at 13 µM.

A further data set relates to neuronal cells.
Experiment: not given
As to conditions: Neurobiology of Aging 1992; cited from earlier work.
“β-amyloid peptide: 4500 Dalton protein, major constituent of amyloid plaque cores; in its longest forms 42 or 43 amino acid residues”: the “direct toxicity (other research groups)” value is recorded as “unable to consistently demonstrate direct toxicity”.

Staying with this data set, now noted: in vitro and in vivo; B. A. Yankner 1989; cited from earlier work.
In the case of “β-amyloid peptide: 4500 Dalton protein, major constituent of amyloid plaque cores; in its longest forms 42 or 43 amino acid residues”, the neurotoxicity entry was “neurotoxic in vitro and in vivo”.

The record behind these values is patent publication US5563164A, “Phospholipase A2 inhibitors” (Eli Lilly and Company, priority 1995, dated 1996).
